{"source": "patent US8791267B2", "about": "“Biaryl PDE4 inhibitors for treating inflammatory, cardiovascular and CNS disorders” (Decode Genetics EHF, priority 2007, dated 2014)", "note": "Structures can show the parent of a compound that is named as a salt.", "data": [{"target": "PDE4 (Homo sapiens, UniProt Q08499)", "sequence (Q08499 whole entry)": "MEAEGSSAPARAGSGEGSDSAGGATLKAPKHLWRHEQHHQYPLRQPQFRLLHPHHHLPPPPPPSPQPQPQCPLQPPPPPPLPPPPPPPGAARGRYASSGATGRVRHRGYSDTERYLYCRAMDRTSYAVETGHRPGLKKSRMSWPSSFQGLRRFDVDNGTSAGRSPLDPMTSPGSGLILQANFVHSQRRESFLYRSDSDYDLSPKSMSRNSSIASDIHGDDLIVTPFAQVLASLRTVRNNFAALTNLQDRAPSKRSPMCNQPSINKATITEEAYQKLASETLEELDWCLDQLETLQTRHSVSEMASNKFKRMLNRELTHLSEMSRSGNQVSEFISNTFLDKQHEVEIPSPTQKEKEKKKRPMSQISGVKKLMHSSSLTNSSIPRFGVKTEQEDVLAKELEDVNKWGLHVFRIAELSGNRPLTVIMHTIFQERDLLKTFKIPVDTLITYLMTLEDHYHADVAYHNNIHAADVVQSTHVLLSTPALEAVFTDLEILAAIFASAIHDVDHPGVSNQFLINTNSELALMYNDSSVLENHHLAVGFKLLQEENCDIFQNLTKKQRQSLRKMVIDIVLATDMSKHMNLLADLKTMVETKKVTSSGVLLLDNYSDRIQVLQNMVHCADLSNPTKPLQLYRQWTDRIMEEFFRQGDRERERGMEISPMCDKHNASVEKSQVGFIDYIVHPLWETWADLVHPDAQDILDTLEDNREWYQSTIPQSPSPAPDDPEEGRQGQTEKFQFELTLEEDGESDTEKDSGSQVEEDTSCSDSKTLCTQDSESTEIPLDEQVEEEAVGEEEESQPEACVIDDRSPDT", "experiment": "In-vitro assay for PDE4 enzymes, real-time enzyme-coupled spectrophotometric assay (Table 9)", "assay_type": "biochemical", "details": "not given", "units": {"IC50": "µM"}, "values": [{"smiles": "COc1ccc(Cc2ccc(CNC(=O)Oc3ccccc3)nc2)c(F)c1-c1cccc(Cl)c1", "note": "[P-520, [5-(3′-Chloro-2-fluoro-6-methoxy-biphenyl-3-ylmethyl)-pyridin-2-ylmethyl]-carbamic acid phenyl ester]", "IC50": "< 5"}]}, {"target": "PDE4 (Homo sapiens, UniProt Q08499)", "experiment": "In-vitro assay for PDE4 enzymes, real-time enzyme-coupled spectrophotometric assay (Table 9)", "assay_type": "biochemical", "details": "human PDE4D; activity class, Table 9; read-out: hPDE4D", "units": {"IC50": "µM"}, "values": [{"smiles": "COc1ccc(Cc2ccc(C(C)N3CCC3)nc2)cc1-c1cccc(Cl)c1", "note": "(centres unmarked) [P-609, 2-(1-azetidin-1-yl-ethyl)-5-(3′-chloro-6-methoxy-biphenyl-3-ylmethyl)-pyridine]", "IC50": "< 5"}, {"smiles": "COCCOc1ccc(Cc2ccc(=O)n(CCOC)n2)cc1-c1cccc([N+](=O)[O-])c1", "note": "[P-018, 6-[6-(2-Methoxy-ethoxy)-3′-nitro-biphenyl-3-ylmethyl]-2-(2-methoxy-ethyl)-2H-pyridazin-3-one]", "IC50": "5 to 20"}, {"smiles": "COc1ccc(Cn2cncn2)cc1-c1ccc2[nH]ccc2c1", "note": "[P-486, 5-(2-Methoxy-5-[1,2,4]triazol-1-ylmethyl-phenyl)-1H-indole]", "IC50": "20 to 40"}, {"smiles": "CCNc1ccc(Cc2ccc(OC)c(-c3cccc(Cl)c3)c2)cc1", "note": "[P-247, [4-(3′-Chloro-6-methoxy-biphenyl-3-ylmethyl)-phenyl]-ethylamine; HCl salt]", "IC50": "< 5"}, {"smiles": "COc1ccc(Cc2ccc(F)cc2)c(F)c1-c1cccc(Br)c1", "note": "[P-139]", "IC50": "< 5"}, {"smiles": "COc1ccc(Cn2cc(-c3ccncc3)cn2)c(F)c1-c1cccc(Cl)c1", "note": "[P-528, 4-[1-(3′-Chloro-2-fluoro-6-methoxy-biphenyl-3-ylmethyl)-1H-pyrazol-4-yl]-pyridine]", "IC50": "< 5"}, {"smiles": "COc1ccc(-c2cc(Cc3ccc(F)cc3)ccc2OC)cc1C(C)=O", "note": "[P-170, 1-[5′-(4-Fluoro-benzyl)-4,2′-dimethoxy-biphenyl-3-yl]-ethanone]", "IC50": "< 5"}, {"smiles": "CCOc1ccc(Cc2ccc(NC(C)=O)cc2)c(F)c1-c1cccc(Br)c1", "note": "[P-322]", "IC50": "< 5"}, {"smiles": "COc1ccc(CO)c(O)c1-c1cccc([N+](=O)[O-])c1", "note": "[P-149]", "IC50": "< 5"}, {"smiles": "CN1CC[C@H](Oc2ccc(Cc3ccc(NC(N)=O)cc3)cc2-c2cccc(Cl)c2)C1", "note": "[P-556]", "IC50": "5 to 20"}, {"smiles": "COc1ccc(Cc2ccc(F)cc2)cc1-n1cc(-c2ccncc2)cn1", "note": "[P-389, 4-{1-[5-(4-Fluoro-benzyl)-2-methoxy-phenyl]-1H-pyrazol-4-yl}-pyridine]", "IC50": "5 to 20"}, {"smiles": "FC(F)Oc1ccc(Cc2ccc(N3CCC3)nc2)cc1-c1cccc(Cl)c1", "note": "[P-614, 2-Azetidin-1-yl-5-(3′-chloro-6-difluoromethoxy-biphenyl-3-ylmethyl)-pyridine]", "IC50": "< 5"}, {"smiles": "COc1ccc(C=Cc2ccc(F)cc2)c(F)c1-c1cccc(Cl)c1", "note": "[P-418]", "IC50": "5 to 20"}, {"smiles": "CN(C)CC(=O)Nc1ccc(Cc2ccc(OC(F)F)c(-c3cccc(Cl)c3)c2)cn1", "note": "[P-618, N-[5-(3′-Chloro-6-difluoromethoxy-biphenyl-3-ylmethyl)-pyridin-2-yl]-2-dimethylamino-acetamide hydrochloride]", "IC50": "< 5"}, {"smiles": "COc1ccc(CN2C(=O)c3ccccc3C2=O)cc1-c1ccc2c(c1)OCO2", "note": "[P-052, 2-(3-Benzo[1,3]dioxol-5-yl-4-methoxy-benzyl)-isoindole-1,3-dione]", "IC50": "< 5"}, {"smiles": "COc1ccc(COc2ccc(Br)cn2)c(F)c1-c1cccc(Cl)c1", "note": "[P-574]", "IC50": "< 5"}, {"smiles": "COc1ccc(Cc2ccc(N3CC[C@H]3C(N)=O)nc2)c(F)c1-c1cccc(Cl)c1", "note": "[P-615, (S)-1-[5-(3′-chloro-2-fluoro-6methoxy-biphenyl-3-ylmethyl)-pyridin-2-yl]-azetidine-2-carboxylic acid amide]", "IC50": "< 5"}, {"smiles": "COc1ccc(Cc2ccc(N(C)C)cc2)c(O)c1-c1cccc([N+](=O)[O-])c1", "note": "[P-157, 3-(4-Dimethylamino-benzyl)-6-methoxy-3′-nitro-biphenyl-2-ol]", "IC50": "< 5"}, {"smiles": "NC(=O)COc1ccc(Cc2ccc(NC(N)=O)cc2)cc1-c1cccc(Cl)c1", "note": "[P-557, 2-[3′-Chloro-5-(4-ureido-benzyl)-biphenyl-2-yloxy]-acetamide]", "IC50": "< 5"}, {"smiles": "[2H]C(O)(c1ccc([N+](=O)[O-])cc1)c1ccc(OC)c(-c2cccc(Cl)c2)c1F", "note": "(centres unmarked) [P-537, deutero-(3′-chloro-2-fluoro-6-methoxy-biphenyl-3-yl)-(4-nitro-phenyl)-methanol]", "IC50": "< 5"}, {"smiles": "COc1ccc(Cc2cccc(OCCN3CCOCC3)c2)c(F)c1-c1cccc(Cl)c1", "note": "[P-220]", "IC50": "< 5"}, {"smiles": "CNc1ccc(Cc2ccc(OC)c(-c3cccc(Cl)c3)c2)cc1", "note": "[P-476, [4-(3′-Chloro-6-methoxy-biphenyl-3-ylmethyl)-phenyl]-methyl-amine hydrochloric acid]", "IC50": "< 5"}, {"smiles": "COc1ccc(CN2CCC[C@@H]2CO)cc1-c1cccc([N+](=O)[O-])c1", "note": "[P-493, [(R)-1-(6-Methoxy-3′-nitro-biphenyl-3-ylmethyl)-pyrrolidin-2-yl]-methanol]", "IC50": "20 to 40"}, {"smiles": "COc1ccc(Cc2ccc(F)cc2)cc1-c1cccnc1", "note": "[P-474, 3-[5-(4-Fluoro-benzyl)-2-methoxy-phenyl]-pyridine]", "IC50": "< 5"}, {"smiles": "COc1ccc(Cc2ccc(N3CCC(O)C3)nc2)cc1-c1cccc(Cl)c1", "note": "(centres unmarked) [P-602, 1-[5-(3′-chloro-6-methoxy-biphenyl-3-ylmethyl)-pyridin-2-yl]-pyrrolidin-3-ol]", "IC50": "< 5"}, {"smiles": "CCNC(=O)Nc1ccc(S(=O)(=O)c2ccc(OC)c(-c3cccc(Cl)c3)c2)cc1", "note": "[P-450, 1-[4-(3′-Chloro-6-methoxy-biphenyl-3-sulfonyl)-phenyl]-3-ethyl-urea]", "IC50": "< 5"}, {"smiles": "COc1ccc(COc2cccc(NC(C)=O)c2)c(F)c1-c1cccc(Cl)c1", "note": "[P-231]", "IC50": "< 5"}, {"smiles": "COc1ccc(COc2ccc(NC(C)=O)cc2)c(F)c1-c1cccc(Br)c1", "note": "[P-194]", "IC50": "< 5"}, {"smiles": "COc1ccc(Cn2cncn2)cc1-c1cccc([N+](=O)[O-])c1", "note": "[P-005]", "IC50": "< 5"}, {"smiles": "COc1ccc(Cc2ccc(Nc3nccs3)cc2)cc1-c1cccc(Cl)c1", "note": "[P-454, [4-(3′-Chloro-6-methoxy-biphenyl-3-ylmethyl)-phenyl]-thiazol-2-yl-amine]", "IC50": "< 5"}, {"smiles": "CCNC(=O)Nc1ccc([S+]([O-])c2ccc(OC)c(-c3cccc(Cl)c3)c2)cc1", "note": "(centres unmarked) [P-449, 1-[4-(3′-Chloro-6-methoxy-biphenyl-3-sulfinyl)-phenyl]-3-ethyl urea]", "IC50": "< 5"}, {"smiles": "O=[N+]([O-])c1cccc(-c2cc(Cc3ccc(F)cc3)ccc2OC(F)(F)F)c1", "note": "[P-080, 5-(4-Fluoro-benzyl)-3′-nitro-2-trifluoromethoxy-biphenyl]", "IC50": "< 5"}, {"smiles": "COc1ccc(Cc2ccc(C(C)(C)N)nc2)c(F)c1-c1cccc(Cl)c1", "note": "[P-595, 1-[5-(3′-Chloro-2-fluoro-6-methoxy-biphenyl-3-ylmethyl)-pyridin-2-yl]-1-methyl-ethylamine]", "IC50": "< 5"}, {"smiles": "COc1ccc(C(=O)c2ccc(N)cc2)cc1-c1cccc(Cl)c1", "note": "[P-558, (4-amino-phenyl)-(3′-chloro-6-methoxy-biphenyl-3-yl)-methanone]", "IC50": "< 5"}, {"smiles": "COc1ccc(Cc2ccc(N3CCOCC3)nc2)cc1-c1cccc(Cl)c1", "note": "[P-572, 4-[5-(3′-chloro-6-methoxy-biphenyl-3-ylmethyl)-pyridin-2-yl]-morpholine]", "IC50": "< 5"}, {"smiles": "COc1ccc(Cn2cncn2)cc1-c1cccc(S(C)(=O)=O)c1", "note": "[P-495, 1-(3′-Methanesulfonyl-6-methoxy-biphenyl-3-ylmethyl)-1H-[1,2,4]triazole]", "IC50": "20 to 40"}, {"smiles": "COc1ccc(Cc2cccc(NS(C)(=O)=O)c2)cc1-c1cccc(Cl)c1", "note": "[P-271, N-[3-(3′-Chloro-6-methoxy-biphenyl-3-ylmethyl)-phenyl]-methanesulfonamide]", "IC50": "5 to 20"}]}]}
